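Assay format: 96-well plates, 48-hour exposure. Abbreviation: GI50, concentration required for 50% inhibition of growth. TGI: total growth inhibition.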
What was measured:
Experiment in all cases: inhibition of tumour cell growth, NCI panel, 48 h
SW-620 colon = tested on: SW-620 colon
M19-MEL melanoma = tested on: M19-MEL melanoma
DMS 273 small cell lung = tested on: DMS 273 small cell lung
OVCAR-5 ovarian = tested on: OVCAR-5 ovarian
HCT-116 colon = tested on: HCT-116 colon
NCI-H23 lung = tested on: NCI-H23 lung
A498 renal = tested on: A498 renal
K-562 leukemia = tested on: K-562 leukemia
SF-295 CNS = tested on: SF-295 CNS
NCI-H226 lung = tested on: NCI-H226 lung

SMILES | TGI (SW-620 colon) [µM] | TGI (M19-MEL melanoma) [µM] | TGI (DMS 273 small cell lung) [µM] | TGI (OVCAR-5 ovarian) [µM] | TGI (HCT-116 colon) [µM] | TGI (NCI-H23 lung) [µM] | TGI (A498 renal) [µM] | TGI (K-562 leukemia) [µM] | GI50 (SW-620 colon) [µM] | GI50 (OVCAR-5 ovarian) [µM] | GI50 (HCT-116 colon) [µM] | GI50 (NCI-H23 lung) [µM] | GI50 (SF-295 CNS) [µM] | TGI (SF-295 CNS) [µM] | GI50 (NCI-H226 lung) [µM] | TGI (NCI-H226 lung) [µM] | GI50 (A498 renal) [µM] | GI50 (K-562 leukemia) [µM]
O=C(O)c1cnc2c(ccc3[nH]cccc32)c1=O | > 100 | > 100 | > 100 | > 100 | > 100 | > 100 | > 100 | > 100 | – | – | – | – | – | – | – | – | – | –
CCOc1ccccc1/C=N\N=C(N/N=C/c1ccccc1OCC)N/N=C/c1ccccc1OCC | > 100 | – | – | > 100 | > 100 | > 100 | 8.45 | > 100 | 3.24 | 2.52 | 0.763 | 2.77 | 2.41 | > 100 | 2.74 | > 100 | 2.17 | 3.76
O/N=C1/CCCC/C1=C\c1ccc(Cl)c(Cl)c1 | > 100 | > 100 | 63.1 | – | 35.8 | > 100 | 84.5 | > 100 | – | – | – | – | – | > 100 | – | – | – | –
CCOC(=O)c1ccc(N2NC(=O)/C(=C/c3ccc([N+](=O)[O-])o3)C2=O)cc1 | 9.38 | – | – | 40.7 | 21.4 | 52.6 | > 51.6 | > 73.3 | 4.3 | 19 | 8.37 | 21 | > 39 | > 56.1 | > 41 | > 56.5 | > 37 | 9.64
CC[C@]12CN3CCc4c([nH]c5ccccc45)[C@@](C(=O)OC)(c4cc5c(cc4OC)N(C)[C@H]4[C@@](O)(C(=O)OC)[C@H](OC(C)=O)[C@]6(CC)C=CCN7CC[C@]54[C@@H]76)CC(C3)[C@H]1O2 (stereo not given in full) | > 100 | – | – | > 100 | > 100 | > 68.1 | – | > 50 | 0.155 | 1.19 | 0.147 | 0.205 | – | > 12.3 | 0.462 | > 50 | 0.241 | 0.0499
Cc1ccc(/C(=N/NS(=O)(=O)c2cc(C)c(Cl)cc2Cl)Sc2cc(Cl)c(C)cc2S(N)(=O)=O)cc1 | > 100 | – | – | > 100 | > 100 | > 100 | > 100 | > 100 | > 100 | > 100 | > 100 | > 100 | > 100 | > 100 | > 100 | > 100 | > 100 | 70.1
CCc1cc2c(c(OCC(F)(F)F)c(C(=O)NC3CCN(C(=O)CO)CC3)n2C)c(=O)n1CC(=O)c1ccccc1 | > 100 | – | – | > 100 | > 100 | > 100 | > 100 | > 100 | > 59.4 | > 100 | 63.5 | 99.7 | 34.7 | > 100 | 97 | > 100 | 99.3 | 34.4
CCCCCN(CCCCC)CCC[C@@H](C)[C@H]1CC[C@H]2[C@@H]3[C@H](OCCCN)C[C@@H]4C[C@H](OCCCN)CC[C@]4(C)[C@H]3C[C@H](OCCCN)[C@]12C | 20.2 | – | – | 23.4 | 14.7 | 20.6 | 60.7 | 4.33 | 4.79 | 10.3 | 2.4 | 4.36 | 3.03 | 21.8 | 5.11 | 24.8 | 10.2 | 1.84
CCn1nc(C2CCN(C(=O)CCO)CC2)nc1-c1cnc(N)c(-c2nnc(C(C)(C)C)o2)n1 | > 100 | – | – | > 100 | 58.7 | > 100 | 5.12 | > 100 | 18.3 | 3.17 | 18.8 | 26.1 | 3.27 | > 100 | 25.8 | > 100 | 0.617 | 27.8
COc1ccc(/C=C/c2onc3c(=O)n(C)nc(-c4ccccc4)c23)cc1 | > 100 | > 100 | > 100 | – | > 100 | > 100 | – | > 100 | – | – | – | – | – | – | – | – | – | –
Cc1nnn(C)c1-c1cnc2c3ccc(C(C)(C)O)cc3n([C@H](c3ccccc3)C3CCOCC3)c2c1 | > 72.1 | – | – | > 100 | 16.4 | 34.1 | 0.581 | > 100 | 7 | 0.0907 | 0.0149 | 0.158 | 0.0555 | 20.5 | 0.356 | 23.4 | < 0.0381 | < 0.01
c1cc(OCCN2CCCC2)ccc1CNc1ccc2nc(CCC3CCCCC3)[nH]c2c1 | 3.96 | – | – | 6.59 | 3.2 | 8.17 | 2.77 | 2.11 | 1.85 | 2.19 | 1.43 | 2.45 | 1.97 | 3.86 | 1.51 | 3.6 | 1.15 | 0.414
Clc1cc(Br)ccc1-c1ccc(CNCC2CCNCC2)o1 | 3.72 | – | – | 3.93 | 3.97 | 13.6 | 4.24 | 3.46 | 1.85 | 1.89 | 1.69 | 3.43 | 1.94 | 3.99 | 2.3 | 6.25 | 1.87 | 1.45
COc1cc2c(cc1OC)[C@@H]1C(=O)c3ccc4c(c3O[C@@H]1CO2)C[C@H](C(C)C)O4 | > 46.7 | – | – | > 100 | > 37.8 | > 38 | > 31 | > 41.4 | 9.05 | 29.1 | 0.0435 | 0.0416 | 0.294 | – | 8.89 | > 100 | 0.661 | 0.521
Cc1[nH]c2ccccc2c1CO | 28.4 | – | – | 96.9 | 28.5 | 46 | 56.2 | 61.4 | 15.1 | 24.4 | 15.2 | 18.6 | 22.5 | 44.7 | 25.8 | 93.9 | 17.2 | 18.6
C=C(C)CC(C(=O)O)c1ccc(C)cc1 (stereo not given) | > 100 | > 100 | > 100 | > 100 | > 100 | > 100 | > 100 | > 100 | – | – | – | – | – | > 100 | – | – | – | –
